Reference: patent publication US12115178B2, “Acylated active agents and methods of their use for the treatment of autoimmune disorders” (Flagship Pioneering Innovations V, Inc., priority 2018, dated 2024)

Tests used:
Type in all cases: in vitro ADME
[1] = Assay 3. In vitro Colonic Material Stability Assay; details: colonic material slurry, anaerobic, 1 or 10 μM
[2] = Assay 1. Stability in Simulated Gastric Fluid (SGF); details: SGF pH 1.6 with pepsin, 1 μM, 37° C.
Summary of the method: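 Compound at 1 μM final (from 1 mM DMSO stock) incubated at 37° C in SGF: NaCl medium at pH 1.6 with FaSSIF powder and 0.1 mg/mL pepsin, prepared fresh. Aliquots taken at T0 and regular intervals, quenched with equal volume acetonitrile; LC/MS gives degradation rate.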

[3] = Assay 2. Stability in Simulated Intestinal Fluid (SIF); details: SIF pH 6.7 with pancreatin, 1 μM, 37° C.
Summary of the method: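 Compounds at 1 µM (from 1 mM DMSO stock) were incubated at 37 °C with agitation in simulated intestinal fluid: FaSSIF in pH 6.7 phosphate buffer with pancreatin. Aliquots taken from T0 onward were quenched with acetonitrile and analyzed by LC/MS for degradation rate.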

| SMILES | Assay 3 (% Remaining at 24 h) [1] | Assay 1 (SGF) (% Remaining @ 1 hour) [2] | Assay 2 (SIF) (% @ Remaining 4 hours) [3] |
| --- | --- | --- | --- |
| CCC(=O)O[C@H]1[C@H](OC(=O)/C=C/c2c[nH]c3ccccc23)OC[C@@H](OC(=O)CC)[C@H]1OC(=O)CC [Compound 92, (2S,3R,4R,5R)-3,4,5-tris(propanoyloxy)oxan-2-yl (2E)-3-(1H-indol-3-yl)prop-2-enoate] | A (<25% of the tested compound remaining) | C (>75% of the tested compound remaining) | A (<25% of the tested compound remaining) |
| CCC(=O)O[C@@H]1[C@@H](OC(=O)CC)[C@@H](OC(=O)/C=C/c2c[nH]c3ccccc23)OC[C@H]1OC(=O)CC [Compound 93, (2R,3R,4S,5R)-3,4,5-tris(propanoyloxy)oxan-2-yl (2E)-3-(1H-indol-3-yl)prop-2-enoate] | A (<25% of the tested compound remaining) | C (>75% of the tested compound remaining) | A (<25% of the tested compound remaining) |
| CCC(=O)O[C@H]1[C@@H](OC(=O)CCc2c[nH]c3ccccc23)OC[C@@H](OC(=O)CC)[C@H]1OC(=O)CC [Compound 94, (2R,3R,4R,5R)-3,4,5-tris(propanoyloxy)oxan-2-yl 3-(1H-indol-3-yl)propanoate] | A (<25% of the tested compound remaining) | C (>75% of the tested compound remaining) | A (<25% of the tested compound remaining) |
| CCCC(=O)O[C@@H]1[C@@H](OC(=O)CCC)[C@@H](OC(=O)CCc2c[nH]c3ccccc23)OC[C@H]1OC(=O)CCC [Compound 96, (2R,3R,4S,5R)-4,5-bis(butanoyloxy)-2-{[3-(1H-indol-3-yl)propanoyl]oxy}oxan-3-yl butanoate] | A (<25% of the tested compound remaining) | C (>75% of the tested compound remaining) | A (<25% of the tested compound remaining) |
| CCC(=O)O[C@H]1[C@H](OC(=O)CCc2c[nH]c3ccccc23)OC[C@@H](OC(=O)CC)[C@H]1OC(=O)CC [Compound 98, (2S,3R,4R,5R)-3,4,5-tris(propanoyloxy)oxan-2-yl 3-(1H-indol-3-yl)propanoate] | A (<25% of the tested compound remaining) | B (25-75% of the tested compound remaining) | A (<25% of the tested compound remaining) |
| CCC(=O)O[C@H]1OC[C@@H](OC(=O)CC)[C@@H](OC(=O)CC)[C@H]1OC(=O)CC [Compound 101, (2R,3R,4R,5R)-3,4,5-tris(propanoyloxy)oxan-2-yl propanoate] | A (<25% of the tested compound remaining) | C (>75% of the tested compound remaining) | A (<25% of the tested compound remaining) |
| CCC(=O)O[C@@H]1[C@@H](OC(=O)CC)[C@H](C)O[C@@H](OC(=O)/C=C/c2c[nH]c3ccccc23)[C@@H]1OC(=O)CC [Compound 102, (2S,3R,4R,5S,6S)-6-methyl-3,4,5-tris(propanoyloxy)oxan-2-yl (2E)-3-(1H-indol-3-yl)prop-2-enoate] | A (<25% of the tested compound remaining) | C (>75% of the tested compound remaining) | B (25-75% of the tested compound remaining) |
| CCC(=O)O[C@@H]1[C@@H](OC(=O)CC)[C@H](OC(=O)Cc2c[nH]c3ccccc23)OC[C@@H]1OC(=O)CC [Compound 103, (3S,4S,5R,6S)-6-{[2-(1H-indol-3-yl)acetyl]oxy}-4,5-bis(propanoyloxy)oxan-3-yl propanoate] | A (<25% of the tested compound remaining) | C (>75% of the tested compound remaining) | A (<25% of the tested compound remaining) |
| CCC(=O)O[C@@H]1OC[C@@H](OC(=O)CC)[C@@H](OC(=O)CC)[C@H]1OC(=O)CC [Compound 104, (2S,3R,4R,5R)-3,4,5-tris(propanoyloxy)oxan-2-yl propanoate] | A (<25% of the tested compound remaining) | C (>75% of the tested compound remaining) | A (<25% of the tested compound remaining) |
| CCC(=O)O[C@@H]1[C@H](OC(=O)CC)COC(O)[C@@H]1OC(=O)CC (stereo partly drawn) [Compound 105, (3R,4R,5R)-2-hydroxy-4,5-bis(propanoyloxy)oxan-3-yl propanoate] | B (25-75% of the tested compound remaining) | C (>75% of the tested compound remaining) | B (25-75% of the tested compound remaining) |
| CCC(=O)O[C@H]1[C@H](OC(=O)Cc2c[nH]c3ccccc23)OC[C@@H](OC(=O)CC)[C@H]1OC(=O)CC [Compound 106, (2S,3R,4R,5R)-2-{[2-(1H-indol-3-yl)acetyl]oxy}-4,5-bis(propanoyloxy)oxan-3-yl propanoate] | A (<25% of the tested compound remaining) | C (>75% of the tested compound remaining) | A (<25% of the tested compound remaining) |
| CCC(=O)O[C@@H]1[C@@H](OC(=O)CC)[C@H](C)O[C@H](OC(=O)/C=C/c2c[nH]c3ccccc23)[C@@H]1OC(=O)CC [Compound 107, (2R,3R,4R,5S,6S)-6-methyl-3,4,5-tris(propanoyloxy)oxan-2-yl (2E)-3-(1H-indol-3-yl)prop-2-enoate] | B (25-75% of the tested compound remaining) | B (25-75% of the tested compound remaining) | A (<25% of the tested compound remaining) |
| CCC(=O)O[C@@H]1[C@@H](OC(=O)CC)[C@@H](OC(=O)Cc2c[nH]c3ccccc23)OC[C@@H]1OC(=O)CC [Compound 108, (3S,4S,5R,6R)-6-{[2-(1H-indol-3-yl)acetyl]oxy}-4,5-bis(propanoyloxy)oxan-3-yl propanoate] | A (<25% of the tested compound remaining) | C (>75% of the tested compound remaining) | A (<25% of the tested compound remaining) |
| CCC(=O)OC[C@H]1O[C@H](OC(=O)CCc2c[nH]c3ccccc23)[C@H](OC(=O)CC)[C@@H](OC(=O)CC)[C@@H]1OC(=O)CC [Compound 109, [(2R,3R,4S,5R,6R)-6-{[3-(1H-indol-3-yl)propanoyl]oxy}-3,4,5-tris(propanoyloxy)oxan-2-yl]methyl propanoate] | A (<25% of the tested compound remaining) | C (>75% of the tested compound remaining) | A (<25% of the tested compound remaining) |
| CCC(=O)OC[C@H]1O[C@@H](OC(=O)Cc2c[nH]c3ccccc23)[C@H](OC(=O)CC)[C@@H](OC(=O)CC)[C@@H]1OC(=O)CC [Compound 111, [(2R,3R,4S,5R,6S)-6-{[2-(1H-indol-3-yl)acetyl]oxy}-3,4,5-tris(propanoyloxy)oxan-2-yl]methyl propanoate] | A (<25% of the tested compound remaining) | C (>75% of the tested compound remaining) | A (<25% of the tested compound remaining) |
| CCC(=O)OC[C@H]1O[C@@H](OC(=O)CCc2c[nH]c3ccccc23)[C@H](OC(=O)CC)[C@@H](OC(=O)CC)[C@@H]1OC(=O)CC [Compound 112, [(2R,3R,4S,5R,6S)-6-{[3-(1H-indol-3-yl)propanoyl]oxy}-3,4,5-tris(propanoyloxy)oxan-2-yl]methyl propanoate] | A (<25% of the tested compound remaining) | C (>75% of the tested compound remaining) | A (<25% of the tested compound remaining) |
| CCC(=O)O[C@@H]1[C@@H](OC(=O)CC)[C@@H](OC(=O)CC)C(O)O[C@H]1C (stereo partly drawn) [Compound 113, (3R,4R,5S,6S)-2-hydroxy-6-methyl-4,5-bis(propanoyloxy)oxan-3-yl propanoate] | C (>75% of the tested compound remaining) | C (>75% of the tested compound remaining) | A (<25% of the tested compound remaining) |
| CCC(=O)OC[C@H]1O[C@H](OC(=O)Cc2c[nH]c3ccccc23)[C@H](OC(=O)CC)[C@@H](OC(=O)CC)[C@@H]1OC(=O)CC [Compound 114, [(2R,3R,4S,5R,6R)-6-{[2-(1H-indol-3-yl)acetyl]oxy}-3,4,5-tris(propanoyloxy)oxan-2-yl]methyl propanoate] | A (<25% of the tested compound remaining) | C (>75% of the tested compound remaining) | A (<25% of the tested compound remaining) |
| CCC(=O)O[C@@H]1[C@@H](OC(=O)CC)[C@H](C)O[C@@H](OC(=O)Cc2c[nH]c3ccccc23)[C@@H]1OC(=O)CC [Compound 115, (2S,3R,4R,5S,6S)-2-{[2-(1H-indol-3-yl)acetyl]oxy}-6-methyl-4,5-bis(propanoyloxy)oxan-3-yl propanoate] | A (<25% of the tested compound remaining) | C (>75% of the tested compound remaining) | A (<25% of the tested compound remaining) |
| CCC(=O)O[C@@H]1[C@@H](OC(=O)CC)[C@@H](OC(=O)Cc2c[nH]c3ccccc23)OC[C@H]1OC(=O)CC [Compound 117, (2R,3R,4S,5R)-2-{[2-(1H-indol-3-yl)acetyl]oxy}-4,5-bis(propanoyloxy)oxan-3-yl propanoate] | A (<25% of the tested compound remaining) | C (>75% of the tested compound remaining) | A (<25% of the tested compound remaining) |
